This is an account of results in publication PMC2409587 (British Journal of Cancer, 2004).

Where two headings read alike, the source gives them in different places.

A short description of data set [1]: Plasma and tissue levels in mice after a single intragastric dose. It is filed as in vivo, mouse. To be noted: for peak concentration / AUC: mice, 240 mg/kg i.g.; for AUC: 0-120 min. As to the method:
Animal experiments were conducted as stipulated by Project Licence 40/2496 granted by the UK Home Office. Experiments were vetted and approved by the Leicester University Animal Welfare Committee and complied with the UKCCCR guidelines for the welfare of animals in experimental neoplasia. […] The vehicle was glycerol formal, and the dose volume approximately 10 ml kg^−1. In the case of DMU 212, the vehicle also contained 10% DMSO. Mice were killed by terminal gaseous anaesthesia at 10, 30, 60 or 120 min postdosing. Blood was collected by cardiac puncture, and plasma was obtained by centrifugation. The liver, kidney, lung, heart, brain and gut were excised, and scrapings were obtained from small intestine and colon. Tissues were snap-frozen (liquid nitrogen) and stored at −80°C until analysis.
Tissues were homogenised (1 : 1 volume to tissue mass ratio) in 50 mM Hepes buffer (Sigma, Poole, UK) using a hand-held glass homogeniser. An aliquot (250 μl) of homogenate, to which an internal standard had been added was vortexed, followed by the addition of acetonitrile (1 ml). After vigorous shaking, mixtures were kept on ice (5–10 min) and centrifuged (2800 g, 10 min, 4°C). The supernatants were dried under a stream of nitrogen and reconstituted in mobile phase (100 μl).
(§1) HPLC analysis was performed using a Varian Prostar HPLC system (Varian, UK) with a Pro-Star 230 solvent delivery system, a Pro-Star 310 UV–Vis detector, a Pro-Star 363 Fluorescence detector, a 410 Varian autosampler and an Ultracarb C18 column (4.6 mm × 250 mm, 5 μm, Phenomenex, UK). The mobile phase consisted of the three components: aqueous ammonium acetate (pH 6.5, 50 mM), propan-2-ol and acetonitrile. […] The flow rate for both methods was 1 ml min^−1.
(§2) The injection volume of samples reconstituted in the mobile phase was 50 μl.
The curves were characterised by regression coefficients of R^2=0.99 or above. […] Therefore, metabolites were not quantitated.
The area under the plasma or tissue concentration vs time curve (AUC) values were calculated using the trapezoidal rule (WinNonlin v.1.1, Scientific Consultants, USA).

The next data set has as its system HT-29 colon cancer cells. The data set is described as follows: Effect of agents on growth of HT-29 cells. Format: cell-based. The conditions noted are these: Homo sapiens, read-out: IC50 (cell growth). How it is done:
(§3) Cells were seeded (10^4 per well) in 24-well plates and cultured in DMEM containing Glutamax I (Life Technologies, Paisley, UK) and glucose (4.5 g l^−1) and 10% foetal calf serum (Gibco, Paisley, UK). […] Cells were counted 72, 96, 120, 144 and 168 h postaddition of agents using a Z2 Coulter Particle Count and Size Analyzer (Beckman Coulter, High Wycombe, UK). Control cultures contained the vehicle only. […] The IC50 values inserted in Figure 5 were calculated from the linear portion of the cell number-vs agent concentration curves at the 168 h time point.

Data set [2] relates to HCA-7 and HT-29 colon cancer cells. The data set is described as follows: Effect of agents on growth of colon cancer cells, range stated over both lines. It is filed as cell-based. To be noted: Homo sapiens, 168 h, read-out: IC50 values (cell growth), range over both agents and both cell lines. As to the method:
as §3

Data set [3] can be described thus: Incubation with mouse liver microsomes. It is filed as in vitro ADME. The conditions noted are these: mouse liver microsomes 0.5 mg protein ml^−1, NADPH 1 mM, substrate 1 mM, 20 min, 37°C. How it is done:
Microsomes were prepared by differential centrifugation of mouse liver homogenate first at 9 × 10^3 g (20 min, 4°C), then at 10^5 g (1 h) in a Beckman L-8-60 ultracentrifuge (Beckman Coulter UK Ltd, High Wycombe, Buckinghamshire, UK). The microsomal pellet was suspended in Tris buffer (50 mM, pH 7.4), recentrifuged at 10^5 g (1 h) and resuspended in Tris buffer. Liver microsomes from two to four mice were pooled. […] The addition of one volume of ice-cold methanol terminated the reaction. The mixture was vortexed (30 s), centrifuged (3 min, 13 400 g) and the supernatant was collected and analysed by HPLC.
as §1, §2
For orientation: Microsomes from liver hold many membrane-bound enzymes, among them those of drug oxidation.

The format of data set [4] is in vivo, mouse. The conditions noted are these: agents at 0.2% in the diet for 2 weeks; result not shown. How it is done: ). Both agents were rapidly cleared from blood and tissues within an hour of administration (Figure 3). […] DMU 212 levels reached a peak after 10 min, except in the case of the colon, in which the peak occurred after 30 min. The peak levels for DMU 212 were 5 μM in the plasma and 8, 11, 11, 5, 10, 7600 and 330 nmols g^−1 tissue in the liver, kidney, lung, brain, heart, small intestinal and colonic mucosae, respectively. We performed a preliminary experiment in order to explore whether the difference in gastrointestinal levels would also be observed when the agents are administered with the diet, the route often used in preclinical cancer chemoprevention studies. Agents were admixed with the diet at 0.2% and fed for 2 weeks.

The next data set relates to HCA-7 colon cancer cells. The data set is described as follows: Effect of agents on growth of HCA-7 cells. Format: cell-based. The conditions noted are these: Homo sapiens, 168 h time point, cell counts. As to the method: as §3
The nature of data set [5]: Metabolite characterisation in plasma and tissues of dosed mice. The conditions noted are these: 240 mg/kg i.g., HPLC cochromatography and mass spectrometry. It is filed as in vivo, mouse.
Method: The vehicle was glycerol formal, and the dose volume approximately 10 ml kg^−1. […] Mice were killed by terminal gaseous anaesthesia at 10, 30, 60 or 120 min postdosing. Blood was collected by cardiac puncture, and plasma was obtained by centrifugation. The liver, kidney, lung, heart, brain and gut were excised, and scrapings were obtained from small intestine and colon. Tissues were snap-frozen (liquid nitrogen) and stored at −80°C until analysis.
Tissues were homogenised (1 : 1 volume to tissue mass ratio) in 50 mM Hepes buffer (Sigma, Poole, UK) using a hand-held glass homogeniser. […] After vigorous shaking, mixtures were kept on ice (5–10 min) and centrifuged (2800 g, 10 min, 4°C). The supernatants were dried under a stream of nitrogen and reconstituted in mobile phase (100 μl).
HPLC analysis was performed using a Varian Prostar HPLC system (Varian, UK) with a Pro-Star 230 solvent delivery system, a Pro-Star 310 UV–Vis detector, a Pro-Star 363 Fluorescence detector, a 410 Varian autosampler and an Ultracarb C18 column (4.6 mm × 250 mm, 5 μm, Phenomenex, UK). […]
Mass spectrometry was performed using a Quattro Bio-Q tandem quadrupole mass spectrometer upgraded to Quattro MK II specifications (Micromass, Manchester, UK) with a pneumatically assisted electrospray interface. Samples were analysed in positive ion mode.
Data set [6] concerns transformed human lung-derived cells. Also on record: method as in Lu et al, 2001. To be noted: ref Lu et al, 2001; cited from earlier work.
For data set [7] the following is noted: rats, ref Verschoyle et al, unpublished, cited from earlier work.
Setting [8] is: plasma and tissues (for DMU 212 except colon), 10 min was the first time point.

As to `Oc1ccc(/C=C/c2cc(O)cc(O)c2)cc1` [resveratrol, trans-3,5,4′-trihydroxystilbene, reference compound], the peak concentration in data set [1] (brain) was 1.2 nmols g^−1 tissue; in [1] (colonic mucosa), 30 nmols g^−1 tissue; in data set [1] (heart) it was 75 nmols g^−1 tissue; in data set [1] (kidney), 16 nmols g^−1 tissue; in data set [1] (liver), 51 nmols g^−1 tissue; in data set [1] (lung), 50 nmols g^−1 tissue. Besides, the peak concentration in [1] (plasma) was found to be 32 µM; in [1] (small intestinal mucosa), 960 nmols g^−1 tissue. Besides, the AUC is listed as 103 nmoles ml^−1 or g^−1 min in data set [1] (brain); 2869 nmoles ml^−1 or g^−1 min in [1] (colonic mucosa); 2072 nmoles ml^−1 or g^−1 min in data set [1] (heart); 36 690 nmoles ml^−1 or g^−1 min in data set [1] (intestinal mucosa); 785 nmoles ml^−1 or g^−1 min in [1] (kidney); 2150 nmoles ml^−1 or g^−1 min in [1] (liver). Moreover, the results for the AUC in data set [1] (lung) and in [1] (plasma) were 1123 nmoles ml^−1 or g^−1 min and 863 nmoles ml^−1 or g^−1 min, respectively. Also, the “time at which levels peaked” value in data set [1] (setting [8]) came out at 10 min. Also, the IC50 – broadly, the concentration needed to halve the response being measured – in the data set with HT-29 colon cancer cells (HT-29 cells, 168 h time point, cell counts) was 19.9 ± 0.3 µM; in data set [2] (HCA-7 and HT-29 cells) it was 6 to 26 µM. Also, the “microsomal biotransformation (HPLC peaks besides parent)” value in [3] is given as “did not yield any peak in addition to that of the parent substrate”.
Turning to `COc1ccc(C=Cc2cc(OC)c(OC)c(OC)c2)cc1` [DMU 212, 3,4,5,4′-tetramethoxystilbene], the peak concentration is reported as 5 nmols g^−1 tissue in [1] (brain); 330 nmols g^−1 tissue in [1] (colonic mucosa); 10 nmols g^−1 tissue in data set [1] (heart); 11 nmols g^−1 tissue in data set [1] (kidney); 8 nmols g^−1 tissue in data set [1] (liver); 11 nmols g^−1 tissue in data set [1] (lung). For the same compound, the peak concentration worked out at 5 µM in data set [1] (plasma) and 7600 nmols g^−1 tissue in data set [1] (small intestinal mucosa). Besides, the AUC in data set [1] (brain) is 193 nmoles ml^−1 or g^−1 min; in [1] (colonic mucosa) it was 19 256 nmoles ml^−1 or g^−1 min; in data set [1] (heart) it was 750 nmoles ml^−1 or g^−1 min; in data set [1] (intestinal mucosa) it was 369 315 nmoles ml^−1 or g^−1 min; in [1] (kidney), 566 nmoles ml^−1 or g^−1 min; in [1] (liver) it was 432 nmoles ml^−1 or g^−1 min. Besides, the AUC in [1] (lung) was 778 nmoles ml^−1 or g^−1 min; in data set [1] (plasma), 246 nmoles ml^−1 or g^−1 min. Further, the results for the “time at which levels peaked” value in data set [1] (colon) and in [1] (setting [8]) were 30 min and 10 min, respectively. For the same compound, in [1] (small intestinal mucosa), the “factor by which peak level exceeded the concentration arresting transformed lung cell growth (10 μM)” value is recorded as 760. Besides, in data set [4], the “colonic levels of DMU 212 relative to those of resveratrol” value is given as “two-fold”. In addition, the IC50 was 11.3 ± 1.1 µM with HT-29 colon cancer cells (HT-29, 168 h); 6 ± 0.2 µM with HCA-7 colon cancer cells; 6 to 26 µM in data set [2]. In addition, the “microsomal biotransformation (HPLC peaks besides parent)” value in [3] was “afforded peaks in addition to that of parent DMU 212”. In addition, the “metabolism in mice in vivo” value in [5] is “underwent metabolic hydroxylation or single and double O-demethylation”. The “concentration required to cause significant arrest of transformed lung cell growth in vitro” value in [6] is 10 µM. Moreover, the toxicity result in [7] (single doses of up to 40 mg kg^−1 i.v.) and in data set [7] (single doses of up to 400 mg kg^−1 p.o.) was “devoid of any toxicity” each time.
